Laboratory results from patent US20230000876A1, “TREATING CANCERS WITH A CYCLIN-DEPENDENT KINASE INHIBITOR” (Nuvation Bio Inc., priority 2021, published 2023).
Read-outs that look alike come from different tables or passages of the source.

Assay: Pharmacokinetics and brain distribution after single oral dose, rats
Format: in vivo, male Sprague-Dawley rats
Details: for Kp at 6 h / concentration at 6 h / Cmax / Tmax / concentration at 1 h / concentration at 2 h / concentration at 4 h / concentration at 8 h / concentration at 12 h / AUC(0-inf) / half-life / concentration at 24 h: male, Sprague-Dawley, rat; for Kp at 6 h: po
Method: The pharmacokinetics and brain distribution in maleCD1 mice and Sprague-Dawley rats following a single oral (PO) dose was evaluated. The compound of formula (I) was administered once at 10 mg/kg to mice and at 1, 10, 30, and 100 mg/kg to rats. All doses, compound of formula (I) concentrations, and derived PK parameters are expressed as the free base of the compound of formula (I).
The in-life portion of these studies was performed by Alliance Pharma (Malvern, Pa.) according to Protocols 200107-02 (mice) and 1910158-02 (rats). Animals were assigned randomly to the dose groups and were fasted 12 hours prior to dosing. Water was available ad libitum. The compound of formula (I) (as an HCl salt) was given to male CD1 mice at 10 mg/kg single PO dose, while in Sprague-Dawley rats, the doses were 1, 10, 30, and 100 mg/kg. In both studies, the compound of formula (I) was formulated in 0.5% hydroxypropyl methylcellulose (HPMC)/0.2% Tween 80 and the dosing volume was 5 mL/kg for all dose groups.
Whole blood was collected at 2, 4, 6, and 12 hours post dose from mice and predose and 1, 2, 4, 8, 12, and 24 hours post dose from rats into tubes containing dipotassium ethylenediaminetetraacetic acid (K2EDTA). Blood was obtained from 3 mice and 4 rats per time-point per dose level. The blood samples were processed into plasma analyzed at Alliance Pharma using the method as described below.
The brain tissue was collected from mice at 2, 4, 6, and 12 hours post dose and was collected from rats at 6 hours post dose given 1, 10, 30, or 100 mg/kg of the compound of formula (I). Brain tissue was obtained from 3 mice per time-point at the 10 mg/kg dose level and 4 rats per dose level at the 6-hour post dose time-point.
Brain tissue was rinsed by phosphate-buffered saline (PBS) buffer immediately after harvest, weighed, and mixed with solvent (MeOH:H2O [volume over volume of 20:80]) with a ratio of tissue to solvent of 1:4 (weight over volume). […] After homogenization, the homogenate was aliquoted out for sample analysis.
The concentrations of the compound of formula (I) in the plasma and brain homogenate were determined versus a calibration curve prepared in plasma and naïve brain homogenate, respectively. Samples were deproteinized with acetonitrile containing tolbutamide as internal standard. After centrifugation, the supernatants were analyzed by liquid chromatography with tandem mass spectrometry (LC-MS/MS). Chromatography was performed with a Zorbax SB-C18 (50×2.1 mm, […]) column under gradient conditions described in Table 22. Mobile Phase A (0.1% formic acid [FA] in water) and Mobile Phase B (0.1% FA in acetonitrile) were delivered as a flow rate of 0.8 mL/min. LC-MS/MS was performed using a positive TurboIonSpray® interface on a SciexAPI 4000 and multiple-reaction monitoring (MRM) over a concentration range of 1 ng/mL to 1000 (rats) or 2000 (mice) ng/mL for the plasma and brain homogenate samples.
The mean plasma concentration-time data of the compound of formula (I) was used to determine the pharmacokineticparameters by standard noncompartmental methods using Phoenix® WinNonlin (version 8.2.0; Certara, Princeton, N.J.). Graphs were plotted in Prism® (version 2.3.0; GraphPad, San Diego, Calif.). Concentrations were rounded to 3 significant figures.

[1] = plasma, single PO 1 mg/kg (HCl salt, as free base)
[2] = plasma, single PO 10 mg/kg (HCl salt, as free base)
[3] = plasma, single PO 30 mg/kg (HCl salt, as free base)
[4] = plasma, single PO 100 mg/kg (HCl salt, as free base)

Q: Which Kp at 6 h (brain, 1 mg/kg, single PO 1 mg/kg, 6 h, read-out: Brain:Plasma Ratio) does the source give for CC(C)N1CCOc2c(F)cc(-c3nc(Nc4ccc(C5CCN(C)CC5)cn4)ncc3F)cc21 [Compound (I), 5-fluoro-4-(8-fluoro-4-isopropyl-3,4-dihydro-2H-benzo[b][1,4]oxazin-6-yl)-N-(5-(1-methylpiperidin-4-yl)pyridin-2-yl)pyrimidin-2-amine] here?
A: 6.3

Q: What about the Kp at 6 h (brain, 10 mg/kg, single PO 10 mg/kg, 6 h, read-out: Brain:Plasma Ratio) of the same compound?
A: 6.1

Q: What about the Kp at 6 h (brain, 30 mg/kg, single PO 30 mg/kg, 6 h, read-out: Brain:Plasma Ratio) of the same compound?
A: 11

Q: And the Kp at 6 h (brain, 100 mg/kg, 6 hours post-dose, each dose level (1, 10, 30, 100 mg/kg PO), read-out: Brain-to-plasma concentration ratio)?
A: > 6

Q: What about the Kp at 6 h (brain, 100 mg/kg, single PO 100 mg/kg, 6 h, read-out: Brain:Plasma Ratio) of the same compound?
A: 12

Q: What about the concentration at 6 h (brain, single PO 1 mg/kg, 6 h, read-out: Brain Conc) of the same compound?
A: 58.9 ng/mL

Q: What about the concentration at 6 h (brain, single PO 10 mg/kg, 6 h, read-out: Brain Conc) of the same compound?
A: 548 ng/mL

Q: What about the concentration at 6 h (brain, single PO 30 mg/kg, 6 h, read-out: Brain Conc) of the same compound?
A: 1970 ng/mL

Q: And the concentration at 6 h (brain, single PO 100 mg/kg, 6 h, read-out: Brain Conc)?
A: 2800 ng/mL

Q: And the Cmax (plasma, single PO 1 mg/kg)?
A: 9.37 ng/mL

Q: And the Tmax (plasma, single PO 1 mg/kg)?
A: 6 h

Q: What about the concentration at 1 h [1] of the same compound?
A: 1.52 ng/mL

Q: And the concentration at 2 h [1]?
A: 2.41 ng/mL

Q: What about the concentration at 4 h [1] of the same compound?
A: 4.91 ng/mL

Q: What about the concentration at 6 h (plasma, single PO 1 mg/kg (HCl salt, as free base), 6 h, read-out: Mean Plasma Concentration) of the same compound?
A: 9.37 ng/mL

Q: And the concentration at 8 h [1]?
A: 6.42 ng/mL

Q: What about the concentration at 12 h [1] of the same compound?
A: 4.64 ng/mL

Q: And the AUC(0-inf) (plasma, single PO 10 mg/kg)?
A: 1080 ng·h/mL

Q: What about the Cmax (plasma, single PO 10 mg/kg) of the same compound?
A: 90.4 ng/mL

Q: And the Tmax (plasma, single PO 10 mg/kg)?
A: 6 h

Q: What about the half-life (plasma, single PO 10 mg/kg) of the same compound?
A: 7.54 h

Q: What about the concentration at 1 h [2] of the same compound?
A: 8.45 ng/mL

Q: And the concentration at 2 h [2]?
A: 25.9 ng/mL

Q: What about the concentration at 4 h [2] of the same compound?
A: 51.6 ng/mL

Q: What about the concentration at 6 h (plasma, single PO 10 mg/kg (HCl salt, as free base), 6 h, read-out: Mean Plasma Concentration) of the same compound?
A: 90.4 ng/mL

Q: And the concentration at 8 h [2]?
A: 52.5 ng/mL

Q: What about the concentration at 12 h [2] of the same compound?
A: 46.3 ng/mL

Q: And the concentration at 24 h (plasma, single PO 10 mg/kg (HCl salt, as free base), 24 h)?
A: 12.9 ng/mL

Q: What about the AUC(0-inf) (plasma, single PO 30 mg/kg) of the same compound?
A: 3870 ng·h/mL

Q: What about the Cmax (plasma, single PO 30 mg/kg) of the same compound?
A: 180 ng/mL

Q: And the Tmax (plasma, single PO 30 mg/kg)?
A: 6 h

Q: What about the half-life (plasma, single PO 30 mg/kg) of the same compound?
A: 13.4 h

Q: What about the concentration at 1 h [3] of the same compound?
A: 43.2 ng/mL

Q: What about the concentration at 2 h [3] of the same compound?
A: 73.1 ng/mL

Q: What about the concentration at 4 h [3] of the same compound?
A: 136 ng/mL

Q: What about the concentration at 6 h (plasma, single PO 30 mg/kg (HCl salt, as free base), 6 h, read-out: Mean Plasma Concentration) of the same compound?
A: 180 ng/mL

Q: What about the concentration at 8 h [3] of the same compound?
A: 155 ng/mL

Q: What about the concentration at 12 h [3] of the same compound?
A: 117 ng/mL

Q: What about the concentration at 24 h (plasma, single PO 30 mg/kg (HCl salt, as free base), 24 h) of the same compound?
A: 66.4 ng/mL

Q: And the Cmax (plasma, single PO 100 mg/kg)?
A: 243 ng/mL

Q: What about the Tmax (plasma, single PO 100 mg/kg) of the same compound?
A: 6 h

Q: What about the concentration at 1 h [4] of the same compound?
A: 81.2 ng/mL

Q: And the concentration at 2 h [4]?
A: 142 ng/mL

Q: What about the concentration at 4 h [4] of the same compound?
A: 151 ng/mL

Q: What about the concentration at 6 h (plasma, single PO 100 mg/kg (HCl salt, as free base), 6 h, read-out: Mean Plasma Concentration) of the same compound?
A: 243 ng/mL

Q: What about the concentration at 8 h [4] of the same compound?
A: 170 ng/mL

Q: What about the concentration at 12 h [4] of the same compound?
A: 193 ng/mL

Q: And the concentration at 24 h (plasma, single PO 100 mg/kg (HCl salt, as free base), 24 h)?
A: 224 ng/mL

Q: And the “Mean Plasma Concentration” value (single PO 1 mg/kg (HCl salt, as free base), 24 h)?
A: BQL
